Legend:
Assay type in all cases: biochemical
[1] = target: T1, PI3K alfa (Homo sapiens, UniProt P42336); test: PI3 kinase assay (Kinase-Glo luminescence), PI3K alfa; settings: Enzymatic Data; read-out: PI3K alfa IC50 [umol]
T1 construct: for the p110-a subunit (with a deletion of the first 20 amino acids); His tag (C); made in house; host or cells: baculovirus; Tn5 (Trichoplusia ni) or TiniPro insect cells
Procedure: (§1) In a more preferred assay, the kinase reaction is performed in a final volume of 10 μL per well of a low volume non binding CORNING, 384 well black plate (Cat. No. #3676). The final concentrations of ATP and phosphatidyl inositol (PI) in the assay are 1 μM and 10 μg/mL respectively. The reaction is started by the addition of ATP.
(§2) The components of the assay are added per well as follows:
(§3) 50 nL test compounds in 90% DMSO per well, in columns 1-20, 8 concentrations (1/3 and 1/3.33 serial dilution step) in single. • Low control: 50 nL of 90% DMSO in half the wells of columns 23-24 (0.45% in final). • High control: 50 nL of reference compound (e.g. compound of Example 7 in WO 2006/122806, incorporated by reference hereinin that regard) in the other half of columns 23-24 (2.5 μM in final). • Standard: 50 nL of reference compound as just mentioned diluted as the test compounds in columns 21-22 • 20 mL ‘buffer’ are prepared per assay: • 200 μL of 1M TRIS HCl pH7.5 (10 mM in final) • 60 μL of 1M MgCl2 (3 mM in final) • 500 μL of 2M NaCl (50 mM in final) • 100 μL of 10% CHAPS (0.05% in final) • 200 μL of 100 mM DTT (1 mM in final) • 18.94 mL of nanopure water • 10 mL ‘PI’ are prepared per assay: • 200 μL of 1 mg/ml L-alpha-Phosphatidylinositol (Liver Bovine, Avanti Polar Lipids Cat. No. 840042C MW=909.12) prepared in 3% OctylGlucoside (10 μg/ml in final) • 9.8 mL of ‘buffer’ • 10 mL ‘ATP’ are prepared per assay: • 6.7 μL of 3 mM stock of ATP giving a final concentration of 1 μM per well • 10 mL of ‘buffer’ • 2.5 mL of each PI3K construct are prepared per assay in ‘PI’ with the following final concentration : • 10 nM PI3K alfa B-1075 • 25 nM beta BV-949 • 10 nM delta BV-1060 • 150 nM gamma BV-950 • 5 μL of ‘PI/PI3K’ are added per well. • 5 μl ‘ATP’ are added per well to start the reaction. • The plates are then incubated at room temperature for 60 minutes (alfa, beta, delta) or 120 minutes (gamma). • The reaction is terminated by the addition of 10 μL Kinase-Glo (Promega Cat. No. #6714). • The assay plates are read after 10 minutes in Synergy 2 reader (BioTek, Vermont USA) with an integration time of 100 milliseconds and sensitivity set to 191. • Output : The High control is around 60'000 counts and the Low control is 30'000 or lower • This luminescence assay gives a useful Z′ ratio between 0.4 and 0.7
(§4) […] is determined by a four parameter curve fitting routine that comes aloneg with “excel fit”. A 4 Parameter logistic equation is used to calculate IC50 values (IDBS XLfit) of the percentage inhibition of each compound at 8 concentrations (usually 10, 3.0, 1.0, 0.3, 0.1, 0.030, 0.010 and […]). Alternatively, IC50 values are calculated using idbsXLfit model 204, which is a 4 parameter logistic model.
(§5) Testing with the following kinases in the test system mentioned above, with the kinases given in the following tables, the following IC 50 data can be obtained: […]

[2] = target: T2, PI3K beta (Homo sapiens, UniProt P42338); test: PI3 kinase assay (Kinase-Glo luminescence), PI3K beta; settings: Enzymatic Data; read-out: PI3K beta IC50 [umol]
T2 construct: for the full-length p110-b subunit are generated and fused by overlapping PCR; His tag (C); made in house; host or cells: baculovirus; Tn5 (Trichoplusia ni) or TiniPro insect cells
T2 sequence (P42338 with tags, fused parts or gaps limits assumed): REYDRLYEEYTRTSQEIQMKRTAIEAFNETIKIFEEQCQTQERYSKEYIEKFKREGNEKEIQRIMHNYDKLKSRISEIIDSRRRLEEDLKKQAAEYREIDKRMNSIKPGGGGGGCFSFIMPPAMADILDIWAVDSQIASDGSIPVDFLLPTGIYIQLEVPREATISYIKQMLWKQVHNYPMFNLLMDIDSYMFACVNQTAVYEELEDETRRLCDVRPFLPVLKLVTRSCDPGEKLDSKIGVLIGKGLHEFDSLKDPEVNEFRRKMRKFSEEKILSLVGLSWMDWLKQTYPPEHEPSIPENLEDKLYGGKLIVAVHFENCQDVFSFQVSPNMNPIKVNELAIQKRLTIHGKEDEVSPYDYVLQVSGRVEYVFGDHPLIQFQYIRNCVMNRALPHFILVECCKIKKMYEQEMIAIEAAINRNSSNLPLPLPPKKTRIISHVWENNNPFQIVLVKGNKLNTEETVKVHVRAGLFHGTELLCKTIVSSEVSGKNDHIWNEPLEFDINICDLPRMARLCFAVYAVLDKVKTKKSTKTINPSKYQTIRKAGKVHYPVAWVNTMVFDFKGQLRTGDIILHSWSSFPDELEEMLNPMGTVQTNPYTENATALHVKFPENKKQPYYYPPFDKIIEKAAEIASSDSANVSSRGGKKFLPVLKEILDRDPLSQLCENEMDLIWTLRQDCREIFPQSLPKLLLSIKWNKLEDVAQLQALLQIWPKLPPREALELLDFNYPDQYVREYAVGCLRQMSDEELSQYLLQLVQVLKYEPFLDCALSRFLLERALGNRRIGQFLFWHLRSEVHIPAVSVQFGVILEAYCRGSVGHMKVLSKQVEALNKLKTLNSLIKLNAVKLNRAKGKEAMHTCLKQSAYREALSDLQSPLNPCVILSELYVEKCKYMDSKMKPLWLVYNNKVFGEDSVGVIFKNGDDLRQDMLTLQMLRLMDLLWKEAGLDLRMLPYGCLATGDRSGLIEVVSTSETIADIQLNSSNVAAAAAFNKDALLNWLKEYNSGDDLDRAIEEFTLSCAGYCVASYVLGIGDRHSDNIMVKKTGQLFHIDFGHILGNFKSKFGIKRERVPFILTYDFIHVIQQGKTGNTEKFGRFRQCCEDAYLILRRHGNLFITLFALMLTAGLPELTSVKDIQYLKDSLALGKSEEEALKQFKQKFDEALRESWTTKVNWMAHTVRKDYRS
Procedure: as §1, §2, §3, §4, §5

[3] = target: T3, PI3K delta (Homo sapiens, UniProt O00329); test: PI3 kinase assay (Kinase-Glo luminescence), PI3K delta; settings: Enzymatic Data; read-out: PI3K delta IC50 [umol]
T3 construct: for the full-length p110-d subunit are generated and fused by overlapping PCR; His tag (C); made in house; host or cells: baculovirus; Tn5 (Trichoplusia ni) or TiniPro insect cells
T3 sequence (O00329 with tags, fused parts or gaps limits assumed): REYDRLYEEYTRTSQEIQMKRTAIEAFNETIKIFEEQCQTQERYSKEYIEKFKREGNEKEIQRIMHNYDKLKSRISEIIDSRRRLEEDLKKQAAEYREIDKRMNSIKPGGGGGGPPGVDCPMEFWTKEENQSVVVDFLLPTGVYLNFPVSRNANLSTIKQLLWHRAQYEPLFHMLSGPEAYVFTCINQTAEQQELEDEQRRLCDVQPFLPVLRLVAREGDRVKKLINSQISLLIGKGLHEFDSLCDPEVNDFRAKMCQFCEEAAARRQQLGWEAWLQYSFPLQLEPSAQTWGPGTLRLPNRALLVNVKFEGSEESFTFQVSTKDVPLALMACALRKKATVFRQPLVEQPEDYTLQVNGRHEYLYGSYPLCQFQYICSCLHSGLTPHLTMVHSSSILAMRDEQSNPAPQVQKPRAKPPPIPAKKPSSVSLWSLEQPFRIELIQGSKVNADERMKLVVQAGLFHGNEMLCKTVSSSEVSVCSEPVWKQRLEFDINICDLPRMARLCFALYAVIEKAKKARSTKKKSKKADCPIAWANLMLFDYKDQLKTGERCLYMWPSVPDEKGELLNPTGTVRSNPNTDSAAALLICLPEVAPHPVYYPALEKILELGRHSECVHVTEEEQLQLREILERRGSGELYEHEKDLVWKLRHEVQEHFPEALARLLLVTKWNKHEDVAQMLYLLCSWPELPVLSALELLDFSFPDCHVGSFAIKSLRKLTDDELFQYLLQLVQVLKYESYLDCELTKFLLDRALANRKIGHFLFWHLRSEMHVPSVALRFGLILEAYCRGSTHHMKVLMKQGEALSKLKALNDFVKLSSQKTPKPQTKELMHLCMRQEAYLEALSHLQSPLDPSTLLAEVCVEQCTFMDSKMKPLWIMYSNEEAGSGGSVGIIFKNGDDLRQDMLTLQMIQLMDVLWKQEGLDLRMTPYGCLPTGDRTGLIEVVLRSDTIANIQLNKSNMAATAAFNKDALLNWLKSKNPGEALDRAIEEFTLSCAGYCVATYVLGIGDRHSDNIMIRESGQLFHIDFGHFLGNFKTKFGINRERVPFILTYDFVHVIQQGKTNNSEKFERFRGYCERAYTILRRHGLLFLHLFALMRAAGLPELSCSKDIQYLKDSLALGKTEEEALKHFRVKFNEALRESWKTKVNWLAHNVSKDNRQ
Procedure: as §1, §2, §3, §4, §5

[4] = target: T4, PI3K gamma (Homo sapiens, UniProt P48736); test: PI3 kinase assay (Kinase-Glo luminescence), PI3K gamma; settings: Enzymatic Data; read-out: PI3K gamma IC50 [umol]
T4 construct: PI3Kγ BV-950 p110g(D144aa)-C-Term His Tag; His tag (C); made in house; host or cells: construct from the Roger Williams lab (MRC LMB) in pVL1393; baculovirus; Tn5 (Trichoplusia ni) or TiniPro insect cells
T4 sequence (P48736 144-1102 limits assumed): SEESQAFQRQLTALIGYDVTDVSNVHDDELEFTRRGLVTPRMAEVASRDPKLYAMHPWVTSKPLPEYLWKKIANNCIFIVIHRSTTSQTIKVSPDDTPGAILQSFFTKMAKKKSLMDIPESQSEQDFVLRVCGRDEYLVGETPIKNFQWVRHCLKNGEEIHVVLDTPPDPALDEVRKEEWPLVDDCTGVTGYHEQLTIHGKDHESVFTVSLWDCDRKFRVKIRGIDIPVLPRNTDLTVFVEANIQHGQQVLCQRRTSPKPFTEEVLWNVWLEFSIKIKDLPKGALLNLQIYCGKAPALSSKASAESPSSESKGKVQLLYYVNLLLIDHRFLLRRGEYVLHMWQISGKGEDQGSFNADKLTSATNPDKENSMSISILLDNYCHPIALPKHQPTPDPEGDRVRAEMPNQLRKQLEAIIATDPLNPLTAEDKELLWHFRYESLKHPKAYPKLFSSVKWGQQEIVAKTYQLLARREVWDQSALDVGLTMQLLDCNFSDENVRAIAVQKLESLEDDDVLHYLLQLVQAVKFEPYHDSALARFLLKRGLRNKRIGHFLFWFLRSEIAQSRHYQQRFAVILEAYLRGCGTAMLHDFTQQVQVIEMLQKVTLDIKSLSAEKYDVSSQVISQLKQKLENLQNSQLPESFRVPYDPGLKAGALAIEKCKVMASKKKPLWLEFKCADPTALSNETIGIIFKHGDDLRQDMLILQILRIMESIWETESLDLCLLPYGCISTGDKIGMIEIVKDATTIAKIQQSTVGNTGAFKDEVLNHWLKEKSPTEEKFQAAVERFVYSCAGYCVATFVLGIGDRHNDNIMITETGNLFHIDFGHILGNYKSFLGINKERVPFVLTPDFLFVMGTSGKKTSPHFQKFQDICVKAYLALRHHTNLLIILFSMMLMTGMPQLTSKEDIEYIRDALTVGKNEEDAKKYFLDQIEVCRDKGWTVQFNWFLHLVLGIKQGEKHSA
Procedure: as §1, §2, §4

T1 sequence (P42336 with tags, fused parts or gaps limits assumed): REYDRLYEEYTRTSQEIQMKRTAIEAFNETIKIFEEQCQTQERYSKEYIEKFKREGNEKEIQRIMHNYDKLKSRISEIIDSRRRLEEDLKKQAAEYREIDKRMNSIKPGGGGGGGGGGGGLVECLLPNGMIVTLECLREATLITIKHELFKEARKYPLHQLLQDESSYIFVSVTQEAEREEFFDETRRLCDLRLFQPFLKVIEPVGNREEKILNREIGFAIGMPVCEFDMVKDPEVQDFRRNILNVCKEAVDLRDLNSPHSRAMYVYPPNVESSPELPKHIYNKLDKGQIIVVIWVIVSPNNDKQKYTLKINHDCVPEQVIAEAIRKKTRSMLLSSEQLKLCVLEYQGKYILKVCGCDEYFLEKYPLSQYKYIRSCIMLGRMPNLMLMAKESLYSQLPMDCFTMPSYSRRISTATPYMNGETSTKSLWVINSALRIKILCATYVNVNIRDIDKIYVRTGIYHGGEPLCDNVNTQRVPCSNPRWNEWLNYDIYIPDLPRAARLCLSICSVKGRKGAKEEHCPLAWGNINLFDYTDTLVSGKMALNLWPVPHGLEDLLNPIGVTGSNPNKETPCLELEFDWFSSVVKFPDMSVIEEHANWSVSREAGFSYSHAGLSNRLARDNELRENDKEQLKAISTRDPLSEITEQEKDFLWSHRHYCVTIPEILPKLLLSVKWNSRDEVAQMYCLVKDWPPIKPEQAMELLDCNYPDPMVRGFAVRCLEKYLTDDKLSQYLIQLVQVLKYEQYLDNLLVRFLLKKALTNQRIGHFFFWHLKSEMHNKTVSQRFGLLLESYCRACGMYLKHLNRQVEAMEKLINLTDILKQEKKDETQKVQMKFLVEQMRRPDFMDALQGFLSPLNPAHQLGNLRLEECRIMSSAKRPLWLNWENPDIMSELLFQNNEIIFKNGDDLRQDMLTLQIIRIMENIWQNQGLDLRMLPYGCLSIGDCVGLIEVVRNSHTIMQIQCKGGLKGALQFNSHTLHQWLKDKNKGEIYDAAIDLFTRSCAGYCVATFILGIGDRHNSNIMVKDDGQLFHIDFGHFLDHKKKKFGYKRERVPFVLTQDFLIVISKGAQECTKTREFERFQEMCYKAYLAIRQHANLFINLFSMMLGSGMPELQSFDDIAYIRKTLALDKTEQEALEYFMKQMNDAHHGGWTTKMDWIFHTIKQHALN

For COc1ccc(-c2ccc3ncc(-c4cnc(N)c(C(F)(F)F)c4)n3n2)cc1 [Example 46, 5-[6-(4-Methoxy-phenyl)-imidazo[1,2 b]pyridazin-3-yl]-3 trifluoro-methyl-pyridin-2-ylamine], the IC50 [1] was 1.62 µM, the IC50 [2] was 6.28 µM and the IC50 [3] was 2.98 µM. For the same compound, the IC50 [4] was greater than 9.1 µM.

Work on COc1ccc(-c2ccc3ncc(-c4cnc5[nH]ccc5c4)n3n2)cc1 [Example 47, 6-(4-Methoxy-phenyl)-3-(1H-pyrrolo [2,3-b]pyridin-5-yl)-imidazo [1,2-b] pyridazine] yielded an IC50 [1] of 2.72 µM, an IC50 [2] greater than 9.1 µM and an IC50 [3] of 3.85 µM. For the same compound, the IC50 [4] was greater than 9.1 µM.

COc1ccc(-c2ccc3ncc(-c4cnc(N)c(C(F)(F)F)c4)n3n2)cc1F [Example 48, 5-[6-(3-Fluoro-4-methoxy-phenyl)-imidazo [1,2-b]pyridazin-3-yl]-3-trifluoro-methyl-pyridin-2-ylamine] was tested, and the IC50 [1] was 1.12 µM, the IC50 [2] was 6.79 µM and the IC50 [3] was 2.44 µM. The IC50 [4] was greater than 9.1 µM.

COc1ccc(-c2ccc3ncc(-c4cnc5[nH]ccc5c4)n3n2)cc1F [Example 49, 6-(3-Fluoro-4-methoxy-phenyl)-3-(1H-pyrrolo [2,3-b]pyridin-5-yl)-imidazo [1,2-b] pyridazine] gave an IC50 [1] of 1.61 µM, an IC50 [2] greater than 9.1 µM and an IC50 [3] of 4.81 µM. The IC50 [4] was 6.04 µM.

COC(=O)NCCCOc1ccc(-c2ccc3ncc(-c4cnc(N)c(C(F)(F)F)c4)n3n2)cc1OC [Example 50, (3-{4-[3-(6-Amino-5-trifluoromethyl-pyridin-3-yl)-imidazo[1,2-b]pyridazin-6yl]-2-methoxy-phenoxy}-propyl)-carbamic acid methyl ester] was tested, and the IC50 [1] was 0.165 µM, the IC50 [2] was 2.19 µM and the IC50 [3] was 1.01 µM. The IC50 [4] was 2.75 µM.

For COc1cc(-c2ccc3ncc(-c4cnc(N)c(C(F)(F)F)c4)n3n2)ccc1OCCCNC(=O)C(C)C [Example 51], the IC50 [1] was 0.092 µM, the IC50 [2] was 1.39 µM and the IC50 [3] was 0.886 µM. The IC50 [4] was 6.05 µM.

COc1cc(-c2ccc3ncc(-c4cnc(N)c(C(F)(F)F)c4)n3n2)ccc1OCCCNC(C)=O [Example 52, N-(3-{4-[3-(6-Amino-5-trifluoro-methyl-pyridin-3-yl)-imidazo [1,2-b]pyridazin-6-yl]-2-methoxy-phenoxy}-propyl)-acetamide] showed an IC50 [1] of 0.022 µM, an IC50 [2] of 0.364 µM and an IC50 [3] of 0.295 µM. It also gave an IC50 [4] of 2.22 µM.

COc1ccc(-c2ccc3ncc(-c4cncc(C(F)(F)F)c4)n3n2)cc1OC [Example 53, 6-(3,4-Di-methoxy-phenyl)-3-(5-trifluoro-methyl-pyridin-3-yl)-imidazo [1,2-b] pyridazine] was tested, and the IC50 [1] was 0.275 µM, the IC50 [2] was 1.24 µM and the IC50 [3] was 0.401 µM. For the same compound, the IC50 [4] was 1.08 µM.

Work on Nc1ncc(-c2ccc3ncc(-c4cncc(C(F)(F)F)c4)n3n2)cc1C(F)(F)F [Example 54, 3-Trifluoro-methyl-5-[3-(5-trifluoro-methyl-pyridin-3-yl)-imidazo [1,2-b]pyridazin-6-yl]-pyridin-2-ylamine] yielded an IC50 [1] of 0.147 µM, an IC50 [2] of 0.274 µM and an IC50 [3] of 0.231 µM. For the same compound, the IC50 [4] was 0.814 µM.

NCCCOc1ccc(-c2ccc3ncc(-c4cnc(N)c(C(F)(F)F)c4)n3n2)cc1 [Example 56, 5-{6-[4-(3-Amino-propoxy)-phenyl]-imidazo [1,2-b]pyridazin-3-yl}-3-trifluoro-methyl-pyridin-2-ylamine] was tested, and the IC50 [1] was 0.203 µM, the IC50 [2] was 0.183 µM and the IC50 [3] was 0.167 µM. The IC50 [4] was 0.056 µM.

With CC(C)C(=O)NCCCOc1ccc(-c2ccc3ncc(-c4cnc(N)c(C(F)(F)F)c4)n3n2)cc1 [Example 57, N-(3-{4-[3-(6-Amino-5-trifluoro-methyl-pyridin-3-yl)-imidazo [1,2-b]pyridazin-6-yl]-phenoxy}-propyl)-isobutyr-amide] the IC50 [1] was 0.023 µM, the IC50 [2] was 3.37 µM and the IC50 [3] was 0.384 µM. The IC50 [4] was 1.03 µM.

Source: US20100311729A1, “Substituted imidazopyridazines and pyrrolopyrimidines as lipid kinase inhibitors” (priority 2007, published 2010)
